Laboratory results from patent EP4380572B1, “FORMULATION FOR SUBSTITUTED 2-AMINOTHIAZOLES IN THE TREATMENT OF FUNGAL AND FUNGAL-BACTERIAL INFECTIONS OF THE NAIL” (OnychoPharm GmbH, priority 2021, dated 2023).

How the values were obtained:
[1] = Solubility of abafungin in different solvents (saturated solution, UV at 302 nm); format: physicochemical; settings: shaken 24 h, 19°C
Method: 2 ml of solvent were placed in a glass vial containing abafungin powder. The vial was mechanically shaken for 24 h in an environment with controlled temperature (19°C). Thereafter the content of the vials was transferred into Eppendorf tubes and centrifuged at 13000 rpm for 3 min. The supernatant (saturated solution) was collected and assayed using a UV spectrometer at 302 nm (λmax of abafungin). […] Drug concentration in the saturated solution (or diluted solution) was then determined using a standard curve (Table 2). Each experiment was conducted in triplicates. […]

[2] = cited from earlier work; for stability of the crystalline form: anhydrate polymorphic crystalline forms described in EP 0 718 296 A1

Row | Structure (SMILES) | Solubility mg/100 ml mean ± standard deviation ([1]; solvent 1,2-propanediol) [mg/100 ml] | Solubility mg/100 ml mean ± standard deviation ([1]; solvent DMSO) [mg/100 ml] | Solubility mg/100 ml mean ± standard deviation ([1]; solvent N-methyl pyrrolidone) [mg/100 ml] | Solubility mg/100 ml mean ± standard deviation ([1]; solvent PEG600) [mg/100 ml] | Solubility mg/100 ml mean ± standard deviation ([1]; solvent butyl acetate) [mg/100 ml] | Solubility mg/100 ml mean ± standard deviation ([1]; solvent ethanol) [mg/100 ml] | Solubility mg/100 ml mean ± standard deviation ([1]; solvent ethyl acetate) [mg/100 ml] | Solubility mg/100 ml mean ± standard deviation ([1]; solvent isopropanol myristate) [mg/100 ml] | Solubility mg/100 ml mean ± standard deviation ([1]; solvent isopropanol) [mg/100 ml] | Solubility mg/100 ml mean ± standard deviation ([1]; solvent water) [mg/100 ml] | stability at high humidity ([2]; 85% relative humidity, over months) | stability of the crystalline form [2]
1 | Cc1ccc(Oc2ccccc2-c2csc(N=C3NCCCN3)n2)c(C)c1 [abafungin, 4-[2-(2,4-dimethylphenoxy)phenyl]-N-(1,4,5,6-tetrahydropyrimidin-2-yl)-1,3-thiazol-2-amine] | 219.93 ± 12.10 | 4483.42 ± 16.30 | 27678.92 ± 434.07 | 5029.70 ± 12.70 | 822.13 ± 2.55 | 238.46 ± 2.72 | 803.75 ± 35.51 | 50.60 ± 4.30 | 156.14 ± 16.5 | < 0.032 | – | –
2 | Cc1ccc(Oc2ccccc2-c2csc(N=C3NCCCN3)n2)c(C)c1 [modification 2] | – | – | – | – | – | – | – | – | – | – | stable | photochemically and thermodynamically more stable
3 | Cc1ccc(Oc2ccccc2-c2csc(N=C3NCCCN3)n2)c(C)c1 [modification 1] | – | – | – | – | – | – | – | – | – | – | – | metastable
